Data taken from PMC11134387, “Cancer-Stem-Cell Phenotype-Guided Discovery of a Microbiota-Inspired Synthetic Compound Targeting NPM1 for Leukemia” (JACS Au, 2024).

Experiments:
[1] = system: MCF-7-derived mamospheres; assay: Formation of MCF-7-derived mamospheres (CSC tumorspheres); format: cell-based; conditions: for inhibition at 10 µM / inhibition at 1 µM / inhibition at 5 µM: Homo sapiens, MCF7, read-out: Inhibition of tumorsphere formation (%) MCF-7; for inhibition at 1 µM: @1 µM (footnote b); for Formation of tumorspheres (in words): MCF-7 mamospheres and HCT-116 colonospheres, noncytotoxic concentration; for inhibition at 5 µM: @5 µM (footnote d)
Experimental: (§1) (BD Biosciences, Franklin Lakes, NJ, USA). All cells were maintained at 37 °C in a humidified incubator in an atmosphere of 5% CO2, and passaged every 2–3 days.
(§2) Additionally, they were cultured using RPMI media (Gibco/Life Technologies; Grand […]
(§3) Colonospheres, mamospheres and colony formation unit assays. 30.000 cells per well of MCF-7 cells (mamos pheres), HCT-116 cells (colonospheres) and CD34+ cells from patients (colony formation units) were seeded in serum free non- adherent medium or […]
(§4) MethoCult (Stem Cell). […]

[2] = system: HCT-116-derived colonospheres; assay: Formation of HCT-116-derived colonospheres (CSC tumorspheres); format: cell-based; conditions: for inhibition at 1 µM: @1 µM (footnote b)
Experimental: as §1, §2, §3, §4

HCT-116 = assay: Cytotoxic effect in colon tumor cell line (MTT); conditions: for viability at 10 µM: HCT-116, read-out: Viability (%) HCT-116, @10 µM; for viability at 1 µM: HCT-116, read-out: Viability (%) HCT-116, @1 µM (footnote b)
Experimental: (§5) The cytotoxic effect was determined in breast (MCF-7) and colon (HCT-116) tumor cell lines using MTT assays.
(§6) Cells were seeded at 3 × 10^4 cells/mL in 96-well plates. The test compound was diluted in PBS. […] Viability was evaluated by MTT or WST-1 and dose/response curves were performed.

MCF-7 = assay: Cytotoxic effect in breast tumor cell line (MTT); conditions: for viability at 10 µM / viability at 1 µM / viability at 5 µM: Homo sapiens; for viability at 10 µM: MCF7, read-out: Viability (%) MCF-7, @10 µM; for viability at 1 µM: MCF7, read-out: Viability (%) MCF-7, @1 µM (footnote b); for viability at 5 µM: MCF7, read-out: Viability (%) MCF-7, @5 µM (footnote d)
Experimental: as §5, §6

[3] = Viability of non-tumor fibroblast cell line; format: cell-based; conditions: human, IMR90 non-tumor fibroblasts; for viability at 48 h, 1 µM: @1 µM (footnote b)
Experimental: The test compound was diluted in PBS.
Viability (%) tum orsphere form ation (%)

[4] = Plasma protein binding, equilibrium dialysis (RED); format: in vitro ADME; conditions: mouse serum
Experimental: Based on the encouraging results obtained in ex vivo models of AML, we further assessed the therapeutic potential of the new NPM1 inhibitor in vivo. Prior to the evaluation of the compound in an animal model of AML, in vivo pharmacokinetic studies were addressed. Following a single intraperitoneal administration of UCM-13369 at a dose of 25 mg/kg, levels of 200–600 μg/L were detected in mouse peripheral blood up to 6 h (Figure 6A). Plasma protein binding of the compound in mouse serum was measured using an equilibrium dialysis assay, indicating a bound fraction of 83 ± 1%. Next, the efficacy of the compound was evaluated in immunodeficient mice after injection of OCI-AML3-ffLuc-GFP cells as an AML animal model. […]
coupled to a liquid nanochromatography Easy nLC 1200 System (Thermo Scientific).
Once digested, mutant NPM1 C+ C-end sample w as injected into a EASY-Spray™ C18 column, and digestion peptides were separated by using a lineal phase gradi ent (A: 0.1% formic acid in water; B: 20% acetonitrile, 0.1% formic acid in water) for 120 min. Spectra were acquired in DDA m ode, analyzing the 10 higher intensity parent ions in each cycl e.
Proteome Discoverer (Thermo Scientific) was used to align the spectra with the C-end […]
Random exclusion of AIRs was set to 2%. […] Clusters were classifi ed according to H ADDOCK score and stru ctures w er e analyzed with UCSF ChimeraX).10 […]

[5] = Homo sapiens, HCT-116, @10 µM, read-out: Inhibition of tumorsphere formation (%) HCT-116
[6] = Homo sapiens, HCT-116, read-out: Inhibition of tumorsphere formation (%) HCT-116

Structure (SMILES)	inhibition at 10 µM ([1]; @10 µM)	inhibition at 10 µM [2, 5]	viability at 10 µM (HCT-116; Homo sapiens)	viability at 10 µM (MCF-7)	other results
COc1ccc([C@@H]2CC(=O)N(CC3CC3)C[C@H]2N)cc1 [1a]	0%	0%	70 ± 2%	91 ± 7%	
COc1ccc(C2CC(=O)N(CC3CC3)CC2N)cc1 (stereo not shown) [1b]	0%	0%	97 ± 2%	80 ± 2%	
COc1ccc([C@@H]2CCN(CC3CC3)C[C@H]2N)cc1 [2a]	0%	0%	90 ± 1%	96 ± 3%	
COc1ccc([C@H]2CCN(CC3CC3)C[C@@H]2N)cc1 [2b]	0%	0%	94 ± 3%	97 ± 3%	
COc1ccc([C@@H]2CCNC[C@H]2NCC2CC2)cc1 [3a]	0%	0%	95 ± 1%	98 ± 2%	
COc1ccc([C@H]2CCNC[C@@H]2NCC2CC2)cc1 [3b]	0%	0%	94 ± 3%	95 ± 4%	
COc1ccc([C@@H]2Cc3[nH]c4ccccc4c3[C@H](CCNCC3CC3)[C@H]2N)cc1 [4a, 4-{2-[(Cyclopropylmethyl)amino]ethyl}-2-(4-methoxyphenyl)-2,3,4,9-tetrahydro-1H-carbazol-3-amine]					inhibition at 1 µM [1]: 0%; inhibition at 0.1 µM ([2]; Homo sapiens, HCT-116, @0.1 µM (footnote c), read-out: Inhibition of tumorsphere formation (%) HCT-116): 0%; viability at 0.1 µM (HCT-116; Homo sapiens, HCT-116, read-out: Viability (%) HCT-116, @0.1 µM (footnote c)): 85 ± 2%; viability at 1 µM (MCF-7): 92 ± 7%
COc1ccc([C@H]2Oc3ccccc3[C@H]3[C@@H](N)[C@H](c4ccc(OC)cc4)C(CNCC4CC4)=C[C@@H]32)cc1 [5a]					inhibition at 1 µM [1]: 100%; Formation of tumorspheres (in words) [1]: completely inhibit; inhibition at 1 µM [2, 6]: 100%; viability at 48 h, 1 µM [3]: 83 ± 6%; viability at 48 h, 5 µM [3]: 20 ± 5%; viability at 1 µM (HCT-116; Homo sapiens): 87 ± 1%; viability at 1 µM (MCF-7): 99 ± 1%
COc1ccc([C@H]2C(CNCC3CC3)=C[C@@H]3[C@H](c4ccccc4O[C@H]3c3ccc(OC)cc3)[C@@H]2N)cc1 [5b]					inhibition at 1 µM [1]: 100%; Formation of tumorspheres (in words) [1]: completely inhibit; inhibition at 1 µM [2, 6]: 100%; viability at 48 h, 1 µM [3]: 98 ± 2%; viability at 48 h, 5 µM [3]: 28 ± 7%; viability at 1 µM (HCT-116; Homo sapiens): 94 ± 6%; viability at 1 µM (MCF-7): 87 ± 1%
COc1ccc([C@@H]2C(CNCC3CC3)=C[C@H]3[C@@H](c4ccccc4OC3(C)C)[C@H]2N)cc1 [6a]					inhibition at 5 µM [1]: 100%; Formation of tumorspheres (in words) [1]: completely inhibit; inhibition at 1 µM [2, 6]: 100%; viability at 48 h, 1 µM [3]: 95 ± 5%; viability at 48 h, 5 µM [3]: 53 ± 12%; viability at 1 µM (HCT-116; Homo sapiens): 81 ± 6%; viability at 5 µM (MCF-7): 94 ± 11%
COc1ccc([C@H]2C(CNCC3CC3)=C[C@@H]3[C@H](c4ccccc4OC3(C)C)[C@@H]2N)cc1 [6b]					inhibition at 5 µM [1]: 100%; Formation of tumorspheres (in words) [1]: completely inhibit; inhibition at 1 µM [2, 6]: 100%; viability at 48 h, 5 µM [3]: 57 ± 13%; viability at 1 µM (HCT-116; Homo sapiens): 78 ± 9%; viability at 5 µM (MCF-7): 94 ± 5%
COc1ccc2c(c1)[C@H]1C(=NO)N(CC3CC3)C[C@@H]1C(C)(C)O2 [7a]	0%	0%	92 ± 1%	98 ± 1%	
COc1ccc2c(c1)C1C(=NO)N(CC3CC3)CC1C(C)(C)O2 (stereo not shown) [7b]	0%	0%	95 ± 2%	96 ± 2%	
COc1ccc2c(c1)[C@H]1CN(CC3CC3)C[C@@H]1C(C)(C)O2 [8a]	0%	0%	94 ± 6%	65 ± 1%	
COc1ccc2c(c1)C1CN(CC3CC3)CC1C(C)(C)O2 (stereo not shown) [8b]	0%	0%	93 ± 2%	98 ± 1%	
COc1ccc2c(c1)[C@H]1C(=O)N(CC3CC3)C[C@@H]1C(C)(C)O2 [9a]	0%	0%	94 ± 2%	73 ± 5%	
COc1ccc2c(c1)C1C(=O)N(CC3CC3)CC1C(C)(C)O2 (stereo not shown) [9b]	0%	0%	90 ± 3%	65 ± 2%	
COc1ccc([C@H]2Oc3ccccc3[C@@H](CN)[C@@H]2C(=O)NCC2CC2)cc1 [10a]	4 ± 2%	2 ± 1%	61 ± 8%	89 ± 6%	melting point: 175 to 177 °C
COc1ccc([C@@H]2Oc3ccccc3[C@H](CN)[C@H]2C(=O)NCC2CC2)cc1 [10b]	0%	0%	70 ± 1%	94 ± 5%	
COc1ccc2c(c1)[C@@H](CN)[C@H](C(=O)NCC1CC1)C(C)(C)O2 [11a]	0%	0%	94 ± 2%	92 ± 2%	
COc1ccc2c(c1)[C@H](CN)[C@@H](C(=O)NCC1CC1)C(C)(C)O2 [11b]	0%	0%	94 ± 2%	99 ± 1%	
COc1ccc2c(c1)[C@@H](CN)[C@H](CNCC1CC1)C(C)(C)O2 [12a]	0%	0%	90 ± 4%	90 ± 2%	
COc1ccc2c(c1)[C@H](CN)[C@@H](CNCC1CC1)C(C)(C)O2 [12b]	0%	0%	92 ± 3%	73 ± 3%	
COc1ccc(C2C(CNCC3CC3)=Cc3nccnc3N2C)cc1 (stereo not shown) [13a]	0%	0%	85 ± 7%		
COc1ccc(C2C(CNCC3CC3)=Cc3nccnc3N2C)cc1 (stereo not shown) [13b]					Inhibition of tumorsphere formation (%) MCF-7 ([1]; @10 µM): 0%; Inhibition of tumorsphere formation (%) HCT-116 ([2]; @10 µM): 0%; Viability (%) HCT-116 (HCT-116; @10 µM): 90 ± 3%; Viability (%) MCF-7 (MCF-7; @10 µM): 89 ± 6%
CC(C)NCC(O)COc1cccc2ccccc12 (stereo not shown) [Propranolol, reference compound]					Plasma protein binding, bound fraction [4]: 86±2%
